Laboratory results as given in patent publication US20030211942A1, “Aryl sulfonyl amino carbonyl triazole based selective herbicides” (priority 2000, published 2003).

Key:
Experiment in all cases: Post-emergence/greenhouse herbicidal test
Type in all cases: in vivo
[1] = test system: Abutilon theophrasti; details: 30 g of ai/ha, post-emergence, about 3 weeks
Description: (§1) Procarbazone- and flucarbazone-sodium were used as 70 WG formulation. Fenoxaprop-P-ethyl was used in a mixture with mefenpyr-diethyl (75 g of mefenpyr-diethyl/l) as Ralon® Super 69 EW. Cinidon-ethyl and florasulam and iodosufuron in a mixture with mefenpyr-diethyl were used in the form of the finished formulations Lotus® 200 EC, Primus® 50 SC and Hussar® 5 WG (15% mefenpyr-diethyl), respectively. Amicarbazone was used as 70 WG formulation.
(§2) In pre- and post-emergence experiments, the spray liquor is usually admixed with a surfactant (Renex 36), at a concentration of 0.1%.
(§3) Test plants are grown under controlled conditions (temperature and light).
(§4) Following the spray application, the plant containers are kept in a greenhouse under constant light and temperature conditions.
(§5) After about 3 weeks, the degree of damage to the plants is rated in % damage in comparison to the development of the untreated control.
(§6) 0% =no damage (like untreated control)
(§7) 100% =total destruction/damage

[2] = test system: Xanthium strumarium; details: post-emergence, about 3 weeks
Description: as §1, §2, §3, §4, §5, §6, §7

[3] = test system: Cassia tora; details: post-emergence, about 3 weeks
Description: as §1, §2, §3, §4, §5, §6, §7

[4] = test system: Stellaria media; details: post-emergence, about 3 weeks
Description: as §1, §2, §3, §4, §5, §6, §7

[5] = test system: Viola arvensis; details: post-emergence, about 3 weeks
Description: as §1, §2, §3, §4, §5, §6, §7

[6] = test system: Eriochloa villosa; details: post-emergence, about 3 weeks
Description: as §1, §2, §3, §4, §5, §6, §7

[7] = test system: Matricaria inodora; details: application rate 30 g ai/ha
Description: as §1, §2, §3, §4, §5, §6, §7

[8] = test system: Avena fatua
Description: as §1, §2, §3, §4, §5, §6, §7

[9] = test system: Cyperus esculentus; details: post-emergence, about 3 weeks
Description: as §1, §2, §3, §4, §5, §6, §7

[10] = test system: Alopecurus myosuroides; details: post-emergence, about 3 weeks
Description: as §1, §2, §3, §4, §5, §6, §7

[11] = test system: Bromus secalinus; details: post-emergence, about 3 weeks
Description: as §1, §2, §3, §4, §5, §6, §7

[12] = test system: Lolium perenne; details: post-emergence, about 3 weeks
Description: as §1, §2, §3, §4, §5, §6, §7

[13] = test system: Echinochloa crus-galli; details: post-emergence, about 3 weeks
Description: as §1, §2, §3, §4, §5, §6, §7

[14] = test system: Solanum nigrum; details: post-emergence, about 3 weeks
Description: as §1, §2, §3, §4, §5, §6, §7

[15] = test system: Chenopodium album; details: post-emergence, about 3 weeks
Description: as §1, §2, §3, §4, §5, §6, §7

[16] = test system: Datura strumarium; details: post-emergence, about 3 weeks
Description: as §1, §2, §3, §4, §5, §6, §7

[17] = test system: Galium aparine; details: post-emergence, about 3 weeks
Description: as §1, §2, §3, §4, §5, §6, §7

[18] = test system: Amaranthus retroflexus; details: post-emergence, about 3 weeks
Description: as §1, §2, §3, §4, §5, §6, §7

[19] = test system: Polygonum convolvolus; details: post-emergence, about 3 weeks
Description: as §1, §2, §3, §4, §5, §6, §7

[20] = test system: Ipomoea hederacea; details: post-emergence, about 3 weeks
Description: as §1, §2, §3, §4, §5, §6, §7

Compound: CC(C)c1nn(C(=O)NC(C)(C)C)c(=O)n1N [Amicarbazone, 4-amino-N-(1,1-dimethyl-ethyl)-4,5-dihydro-3-(1-methyl-ethyl)-5-oxo-1H-1,2,4-triazole-1-carboxamide]
- Abutilon theophrasti observed [1]: 80%
- Xanthium strumarium observed ([2]; 30 g of ai/ha): 80%
- Cassia tora observed ([3]; 30 g of ai/ha): 40%
- Stellaria media observed ([4]; 60 g of ai/ha): 80%
- Viola arvensis observed ([5]; 30 g of ai/ha): 70%
- Eriochloa villosa observed ([6]; 125 g of ai/ha): 70%
- Matricaria inodora observed [7]: 60
- Avena fatua observed ([8]; application rate 30 g ai/ha): 0

Compound: CCOC(=O)C(Cl)=Cc1cc(N2C(=O)C3=C(CCCC3)C2=O)ccc1Cl [Cinidon-ethyl, ethyl 2-chloro-3-[2-chloro-5-(1,3,4,5,6,7-hexahydro-1,3-dioxo-2H-isoindol-2-yl)-phenyl]-2-propanoate]
- Cassia tora observed ([3]; 15 g of ai/ha): 95%
- Cyperus esculentus observed ([9]; 8 g of ai/ha): 0%
- Cyperus esculentus observed ([9]; 15 g of ai/ha): 20%
- Viola arvensis observed ([5]; 8 g of ai/ha): 0%
- Viola arvensis observed ([5]; 15 g of ai/ha): 30%
- Alopecurus myosuroides observed ([10]; 8 g of ai/ha): 0%
- Alopecurus myosuroides observed ([10]; 15 g of ai/ha): 0%
- Eriochloa villosa observed ([6]; 15 g of ai/ha): 30%
- Bromus secalinus observed ([11]; 8 g of ai/ha): 0%
- Bromus secalinus observed ([11]; 15 g of ai/ha): 20%
- Lolium perenne observed ([12]; 8 g of ai/ha): 0%
- Avena fatua observed ([8]; 8 g of ai/ha, post-emergence, about 3 weeks): 0%
- Avena fatua observed ([8]; 15 g of ai/ha, post-emergence, about 3 weeks): 10%
- Echinochloa crus-galli observed ([13]; 8 g of ai/ha): 0%
- Echinochloa crus-galli observed ([13]; 15 g of ai/ha): 0%

Compound: CCOC(=O)[C@@H](C)Oc1ccc(Oc2nc3ccc(Cl)cc3o2)cc1 [Fenoxaprop-P-ethyl, ethyl (R)-2-[4-(6-chloro-benzoxazol-2-yl-oxy)-phenoxy]-propanoate]
- Solanum nigrum observed ([14]; 15 g of ai/ha): 0%
- Solanum nigrum observed ([14]; 30 g of ai/ha): 0%
- Solanum nigrum observed ([14]; 60 g of ai/ha): 0%
- Chenopodium album observed ([15]; 30 g of ai/ha): 0%
- Chenopodium album observed ([15]; 60 g of ai/ha): 0%
- Datura strumarium observed ([16]; 30 g of ai/ha): 0%
- Datura strumarium observed ([16]; 60 g of ai/ha): 0%
- Galium aparine observed ([17]; 15 g of ai/ha): 0%
- Galium aparine observed ([17]; 30 g of ai/ha): 0%
- Galium aparine observed ([17]; 60 g of ai/ha): 0%
- Xanthium strumarium observed ([2]; 30 g of ai/ha): 0%
- Xanthium strumarium observed ([2]; 60 g of ai/ha): 0%
- Stellaria media observed ([4]; 30 g of ai/ha): 0%
- Stellaria media observed ([4]; 60 g of ai/ha): 0%
- Viola arvensis observed ([5]; 15 g of ai/ha): 0%
- Viola arvensis observed ([5]; 30 g of ai/ha): 0%
- Viola arvensis observed ([5]; 60 g of ai/ha): 0%
- Alopecurus myosuroides observed ([10]; 15 g of ai/ha): 0%
- Alopecurus myosuroides observed ([10]; 30 g of ai/ha): 0%
- Bromus secalinus observed ([11]; 30 g of ai/ha): 0%
- Bromus secalinus observed ([11]; 60 g of ai/ha): 0%
- Amaranthus retroflexus observed ([18]; 30 g of ai/ha): 0%
- Amaranthus retroflexus observed ([18]; 60 g of ai/ha): 0%
- Lolium perenne observed ([12]; 30 g of ai/ha): 0%
- Lolium perenne observed ([12]; 60 g of ai/ha): 0%
- Polygonum convolvolus observed ([19]; 30 g of ai/ha): 0%
- Polygonum convolvolus observed ([19]; 60 g of ai/ha): 0%
- Ipomoea hederacea observed ([20]; 30 g of ai/ha): 0%
- Ipomoea hederacea observed ([20]; 60 g of ai/ha): 0%
